As usually defined, the IC50 is the concentration at which inhibition is half-maximal.

Common to all, as to assay type: cell-based
The target in one test is T1, human TLR7 (Homo sapiens, UniProt Q9NYK1).
T1 construct: host or cells: HEK-Blue cells
T1 sequence (Q9NYK1 27-1049): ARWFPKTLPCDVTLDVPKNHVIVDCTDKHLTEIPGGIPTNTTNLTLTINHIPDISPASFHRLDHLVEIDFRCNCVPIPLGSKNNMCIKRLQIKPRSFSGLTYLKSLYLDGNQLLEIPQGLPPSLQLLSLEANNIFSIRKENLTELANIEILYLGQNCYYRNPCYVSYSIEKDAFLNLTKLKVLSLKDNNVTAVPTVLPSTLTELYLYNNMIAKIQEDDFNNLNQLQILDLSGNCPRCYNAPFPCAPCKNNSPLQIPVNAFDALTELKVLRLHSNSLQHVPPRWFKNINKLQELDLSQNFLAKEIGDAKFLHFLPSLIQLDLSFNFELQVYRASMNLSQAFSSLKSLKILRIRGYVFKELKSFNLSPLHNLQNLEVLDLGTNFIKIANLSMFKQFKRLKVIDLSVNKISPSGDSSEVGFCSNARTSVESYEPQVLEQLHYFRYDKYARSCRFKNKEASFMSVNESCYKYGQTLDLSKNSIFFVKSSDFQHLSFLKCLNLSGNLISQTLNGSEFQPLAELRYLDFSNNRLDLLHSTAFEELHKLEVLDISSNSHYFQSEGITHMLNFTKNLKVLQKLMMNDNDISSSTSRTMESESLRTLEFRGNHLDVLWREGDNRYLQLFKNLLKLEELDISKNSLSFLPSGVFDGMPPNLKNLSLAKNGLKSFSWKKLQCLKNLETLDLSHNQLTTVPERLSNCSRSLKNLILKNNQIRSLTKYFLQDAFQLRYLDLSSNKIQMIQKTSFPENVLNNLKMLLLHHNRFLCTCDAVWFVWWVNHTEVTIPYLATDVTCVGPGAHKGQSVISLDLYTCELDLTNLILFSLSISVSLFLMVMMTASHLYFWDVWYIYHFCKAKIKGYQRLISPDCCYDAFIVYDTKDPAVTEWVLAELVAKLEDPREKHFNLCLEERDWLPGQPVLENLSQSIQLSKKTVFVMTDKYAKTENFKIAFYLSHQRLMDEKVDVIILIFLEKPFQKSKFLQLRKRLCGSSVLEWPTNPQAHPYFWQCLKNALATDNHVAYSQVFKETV
The test is described as follows: TLR7 inhibition reporter assay (HEK-Blue cells, SEAP reporter, gardiquimod stimulation). Particulars: HEK-Blue cells overexpressing human TLR7, SEAP reporter, gardiquimod 7.5 μM; read-out: TLR7 IC50. Summed up: (§1)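 Screening used HEK-Blue cells overexpressing one human TLR (7, 8 or 9) and an IFN-β minimal promoter–NF-κB/AP-1 SEAP construct. Stimulation lasted 22 h at 37 °C with receptor-specific agonist: gardiquimod, R848 or ODN2006 at 7.5 μM, 15.9 μM and 5 nM.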

The target in another test is T2, human TLR9 (Homo sapiens, UniProt Q9NR96).
T2 construct: host or cells: HEK-Blue cells
T2 sequence (Q9NR96 26-1032): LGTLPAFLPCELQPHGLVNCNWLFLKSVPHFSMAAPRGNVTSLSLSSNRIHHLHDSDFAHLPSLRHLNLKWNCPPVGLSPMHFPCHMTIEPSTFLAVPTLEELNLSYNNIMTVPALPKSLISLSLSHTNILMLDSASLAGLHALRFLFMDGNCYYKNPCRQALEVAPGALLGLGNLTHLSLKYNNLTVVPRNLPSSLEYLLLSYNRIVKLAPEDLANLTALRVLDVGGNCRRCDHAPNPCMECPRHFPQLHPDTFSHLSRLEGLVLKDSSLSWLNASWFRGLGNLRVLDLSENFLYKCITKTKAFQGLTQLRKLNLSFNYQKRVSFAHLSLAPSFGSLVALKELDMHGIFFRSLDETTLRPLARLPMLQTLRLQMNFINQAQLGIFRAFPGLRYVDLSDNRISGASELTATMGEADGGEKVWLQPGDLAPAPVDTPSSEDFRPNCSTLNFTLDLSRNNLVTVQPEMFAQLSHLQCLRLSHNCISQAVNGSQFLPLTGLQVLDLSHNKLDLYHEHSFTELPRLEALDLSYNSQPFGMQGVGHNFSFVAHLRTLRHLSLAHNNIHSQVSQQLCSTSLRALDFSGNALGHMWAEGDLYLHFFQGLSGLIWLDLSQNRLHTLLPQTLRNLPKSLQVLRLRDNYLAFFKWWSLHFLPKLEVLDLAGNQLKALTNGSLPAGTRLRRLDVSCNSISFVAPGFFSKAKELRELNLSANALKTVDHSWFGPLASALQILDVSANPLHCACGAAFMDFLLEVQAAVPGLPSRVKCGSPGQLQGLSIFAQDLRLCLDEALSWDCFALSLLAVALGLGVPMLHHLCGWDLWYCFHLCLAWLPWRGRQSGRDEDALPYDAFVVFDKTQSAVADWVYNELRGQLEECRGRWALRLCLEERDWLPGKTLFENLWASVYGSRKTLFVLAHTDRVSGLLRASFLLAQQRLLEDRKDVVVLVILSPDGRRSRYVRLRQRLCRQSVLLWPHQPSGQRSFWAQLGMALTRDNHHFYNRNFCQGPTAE
The test can be described thus: TLR9 inhibition reporter assay (HEK-Blue cells, SEAP reporter, ODN2006 stimulation). To be noted: HEK-Blue cells overexpressing human TLR9, SEAP reporter, ODN2006 5 nM. Summed up:
as §1
(In general: Reporter assays use an easily measured gene product as a stand-in for the process of interest.)

A further test deals with T3, human TLR8 (Homo sapiens, UniProt Q9NR97).
T3 construct: host or cells: HEK-Blue cells
T3 sequence (Q9NR97 27-1041): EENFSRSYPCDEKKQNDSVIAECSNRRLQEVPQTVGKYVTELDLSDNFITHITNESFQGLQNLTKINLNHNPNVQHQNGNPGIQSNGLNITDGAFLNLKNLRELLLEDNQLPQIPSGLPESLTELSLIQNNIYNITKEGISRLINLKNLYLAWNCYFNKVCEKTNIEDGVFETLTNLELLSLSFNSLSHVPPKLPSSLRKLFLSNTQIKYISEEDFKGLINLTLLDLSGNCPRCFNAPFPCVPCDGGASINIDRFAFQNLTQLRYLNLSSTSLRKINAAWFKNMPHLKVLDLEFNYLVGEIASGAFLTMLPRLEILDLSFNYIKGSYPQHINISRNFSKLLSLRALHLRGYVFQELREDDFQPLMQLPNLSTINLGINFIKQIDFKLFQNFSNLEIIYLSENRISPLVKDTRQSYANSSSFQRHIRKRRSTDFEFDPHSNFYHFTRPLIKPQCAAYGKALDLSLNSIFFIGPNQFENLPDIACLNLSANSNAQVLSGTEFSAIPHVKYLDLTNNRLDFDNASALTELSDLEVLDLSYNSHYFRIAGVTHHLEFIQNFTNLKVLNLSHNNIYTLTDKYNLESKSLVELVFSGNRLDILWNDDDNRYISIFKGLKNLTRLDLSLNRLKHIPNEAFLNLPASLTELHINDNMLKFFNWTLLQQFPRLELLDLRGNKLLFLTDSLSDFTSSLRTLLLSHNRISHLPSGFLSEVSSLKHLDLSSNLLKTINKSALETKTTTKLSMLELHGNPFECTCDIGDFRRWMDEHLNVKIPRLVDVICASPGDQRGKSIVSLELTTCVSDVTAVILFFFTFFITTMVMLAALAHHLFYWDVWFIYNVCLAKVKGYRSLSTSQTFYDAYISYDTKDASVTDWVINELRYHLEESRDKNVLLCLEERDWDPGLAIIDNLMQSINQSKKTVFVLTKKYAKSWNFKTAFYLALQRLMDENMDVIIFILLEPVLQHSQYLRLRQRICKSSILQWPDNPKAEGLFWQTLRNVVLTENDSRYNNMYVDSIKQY
The test is described as follows: TLR8 inhibition reporter assay (HEK-Blue cells, SEAP reporter, R848 stimulation). Particulars: HEK-Blue cells overexpressing human TLR8, SEAP reporter, R848 15.9 μM; read-out: TLR8 IC50. The gist of the method: as §1

As for `CNC1CCC(c2nc3c(C(C)C)c(-c4cc(OC)c5ncnn5c4)[nH]c3s2)CC1` (single isomer, unassigned) [Example 75, 4-(6-isopropyl-5-(8-methoxy-[1,2,4]triazolo[1,5-a]pyridin-6-yl)-4H-pyrrolo[3,2-d]thiazol-2-yl)-N-methylcyclohexan-1-amine], the IC50 on human TLR7 was determined as 0.89 nM; against human TLR9 it was 3390 nM; on human TLR8 it was 7.55 nM.

Turning to `Cc1c(-c2[nH]c3sc(N4CCN(C(C)C)C[C@@H]4C)nc3c2C(C)C)cn2ncnc2c1C` [Example 351, (S)-5-(7,8-dimethyl-[1,2,4]triazolo[1,5-a]pyridin-6-yl)-6-isopropyl-2-(4-isopropyl-2-methylpiperazin-1-yl)-4H-pyrrolo[3,2-d]thiazole], the results for the concentration for half-maximal inhibition (IC50) on human TLR7, against human TLR9 and on human TLR8 were 8.23 nM, 19800 nM and 0.98 nM, respectively.

For the molecule `COc1cc(-c2[nH]c3sc(C4CCC(N5CCCOCC5)CC4)nc3c2C(C)C)cn2ncnc12` (single isomer, unassigned) [Example 103, 4-(4-(6-isopropyl-5-(8-methoxy-[1,2,4]triazolo[1,5-a]pyridin-6-yl)-4H-pyrrolo[3,2-d]thiazol-2-yl)cyclohexyl)-1,4-oxazepane], the IC50 amounted to 48 nM at human TLR7, 3600 nM on human TLR9 and 3.46 nM at human TLR8.

Turning to `COc1cc(-c2[nH]c3sc(C4CCC(NC5(C)CCC5)CC4)nc3c2C(C)C)cn2ncnc12` (single isomer, unassigned) [Example 108, 4-(6-isopropyl-5-(8-methoxy-[1,2,4]triazolo[1,5-a]pyridin-6-yl)-4H-pyrrolo[3,2-d]thiazol-2-yl)-N-(1-methylcyclobutyl) cyclohexan-1-amine], the IC50 amounted to 1.34 nM at human TLR7, 5700 nM at human TLR9 and 4.49 nM on human TLR8.

`CC(C)c1c(-c2cn(C)c3ncccc23)[nH]c2sc(C3CCC(NC4COC4)CC3)nc12` (single isomer, unassigned) [Example 178, N-(4-(6-isopropyl-5-(1-methyl-1H-pyrrolo[2,3-b]pyridin-3-yl)-4H-pyrrolo[3,2-d]thiazol-2-yl)cyclohexyl)oxetan-3-amine]: the figures for the half-maximal inhibitory concentration (IC50) at human TLR7, at human TLR9 and on human TLR8 were 1.69 nM, 6710 nM and 2.44 nM, respectively.

For the molecule `Cc1c(-c2[nH]c3sc(C(=O)N4CCN(C(C)C)CC4)nc3c2C(C)C)cn2ncnc2c1C` [Example 380, (5-(7,8-dimethyl-[1,2,4]triazolo[1,5-a]pyridin-6-yl)-6-isopropyl-4H-pyrrolo[3,2-d]thiazol-2-yl)(4-isopropylpiperazin-1-yl)methanone], the half-maximal inhibitory concentration (IC50) came to 11.5 nM at human TLR7, 6520 nM at human TLR9 and 5.07 nM on human TLR8.

Turning to `COc1cc(-c2[nH]c3sc(C4CCC(N5CC6(COC6)C5)CC4)nc3c2C(C)C)cn2ncnc12` (single isomer, unassigned) [Example 68, 6-(4-(6-isopropyl-5-(8-methoxy-[1,2,4]triazolo[1,5-a]pyridin-6-yl)-4H-pyrrolo[3,2-d]thiazol-2-yl)cyclohexyl)-2-oxa-6-azaspiro[3.3]heptane], the half-inhibitory concentration (IC50) was determined as 0.81 nM at human TLR7, 3500 nM against human TLR9 and 0.58 nM at human TLR8.

With `COC(C)(C)CNC1CCC(c2nc3c(C(C)C)c(-c4cn(C)c(=O)c(C)c4C)[nH]c3s2)CC1` (single isomer, unassigned) [Example 244, 5-(6-isopropyl-2-(4-((2-methoxy-2-methylpropyl)amino)cyclohexyl)-4H-pyrrolo[3,2-d]thiazol-5-yl)-1,3,4-trimethylpyridin-2(1H)-one], the half-maximal inhibitory concentration (IC50) at human TLR7 was determined as 44 nM; against human TLR9 it was 25300 nM; at human TLR8 it was 17.5 nM.

With `Cc1c(-c2[nH]c3sc(N4CCN(C(=O)CN(C)C)CC4)nc3c2C(C)C)cn2ncnc2c1C` [Example 280, 1-(4-(5-(7,8-dimethyl-[1,2,4]triazolo[1,5-a]pyridin-6-yl)-6-isopropyl-4H-pyrrolo[3,2-d]thiazol-2-yl)piperazin-1-yl)-2-(dimethylamino)ethan-1-one], the IC50 at human TLR7 was 1.26 nM; on human TLR9, 4960 nM; at human TLR8, 0.73 nM.

For the molecule `Cc1c(-c2[nH]c3sc(N4CCC(NC(C)C)CC4)nc3c2C(C)C)cn2ncnc2c1C` [Example 297, 1-(5-(7,8-dimethyl-[1,2,4]triazolo[1,5-a]pyridin-6-yl)-6-isopropyl-4H-pyrrolo[3,2-d]thiazol-2-yl)-N-isopropylpiperidin-4-amine], the figures for the IC50 on human TLR7, against human TLR9 and at human TLR8 were 2.25 nM, 8910 nM and 0.27 nM, respectively.

For `COc1cc(-c2[nH]c3sc(C4CCC(N5CCS(=O)(=O)CC5)CC4)nc3c2C(C)C)cn2ncnc12` (single isomer, unassigned) [Example 82, 4-(4-(6-isopropyl-5-(8-methoxy-[1,2,4]triazolo[1,5-a]pyridin-6-yl)-4H-pyrrolo[3,2-d]thiazol-2-yl)cyclohexyl)thiomorpholine 1,1-dioxide], the IC50 at human TLR7 was 4.69 nM; at human TLR9, over 50000 nM; at human TLR8, 43.6 nM.

Source of the values: US20230139171A1 (SITA Information Networking Computing UK Limited, priority 2019, published 2023).
